From ChEMBL document CHEMBL3507680, “University of Dundee, Gates Library screen for HepG2 cell viability” come the findings set out here.

The nature of the series: Human HepG2 cell viability assay in 384 well format. The format is toxicity, cell-based. Also noted: dose 125 nL, time 70.5 hour; cytotoxicity at 70.5 h: concentration not given beside the values. The settings on record: HepG2 cells, read-out: Inhibition.
With `Cc1noc(C(C)C)c1C(=O)NCC1CCN(c2ccccc2)C1` (configuration not stated), the cytotoxicity at 70.5 h was determined as 6.36%.
Under `Cc1noc(C)c1C(=O)NCC1CCCCN1Cc1ccccc1` (configuration not stated) stands -1.55%.
Under `CN(Cc1nnc2ccccn12)C(=O)NC1CCCCC1` stands -4.44%; under `CN(Cc1nnc2ccccn12)C(=O)CC1CCCCC1`, -8.16%; under `CC(C)(C)CC(NC(=O)c1nc(=O)[nH][nH]1)c1ccc(F)cc1` (configuration not stated), -3.76%.
Under `O=C(CCS(=O)(=O)C1CCCC1)N1CCC(O)(C(F)(F)F)C1` (configuration not stated) stands 19.5%; under `Cc1ccc(C(=O)Nc2cc(C(N)=O)ccc2CN(C)C)cc1Cl`, -7.51%.
`Cc1noc(C(C)C)c1C(=O)NCC1CCCN1Cc1ccccc1` (configuration not stated): the cytotoxicity at 70.5 h turned out to be 9.45%.
Under `Cc1nc(C(C)NC(=O)NCc2nccn2CC(C)C)cs1` (configuration not stated) stands 4.05%; under `CC(C)Cn1ccnc1CNC(=O)NC(C)c1nccs1` (configuration not stated), 1.43%.
Under `O=C(Nc1cccnc1)Nc1ccn(CC(F)F)n1` stands 7.38%; under `CCOc1ccc(NC(=O)c2scnc2CC)cc1CO`, 1.88%; under `COCC(O)CN1CCC(NC(=O)c2ccccc2Cl)CC1` (configuration not stated), -0.503%.
Under `N#CCCN(C(=O)COC1CCCC1)C1CC1` stands -0.353%; under `CCN(C(=O)Cc1ccc(NCc2nccn2C)cc1)c1ccccc1`, -6.33%; under `Cc1nc2n(n1)CC(NCCCc1nc(-c3cccs3)no1)CC2` (configuration not stated), 4.3%.
Take `OCCN1CCCCC1C1OCCO1` (configuration not stated): the cytotoxicity at 70.5 h was 0.562%.
In the case of `CNC(=O)CN1CCC(CN(C)CCSc2ccccc2)CC1`, the cytotoxicity at 70.5 h was -0.471%.
Under `C1CCN(CCN2CCCCC2C2OCCO2)CC1` (configuration not stated) stands 3.91%.
Turning to `Cc1nc(C(C)C)sc1C(=O)N1CCC(C(N)=O)CC1`, the cytotoxicity at 70.5 h came to 6%.
Under `Cc1noc(CN2CCN(c3cncc(Cl)n3)CC2)n1` stands -4.58%.
Under `CN(C)c1cc(C(F)(F)F)nc(N2CCCC2c2ccccn2)n1` (configuration not stated) stands -5.01%; under `Clc1cncc(N2CCN(Cc3ccon3)CC2)n1`, -3.48%.
Under `Cc1nc(CN2CCN(c3cncc(Cl)n3)CC2)no1` stands -9.09%; under `Cc1cccc(S(=O)(=O)NC(=O)CN(C)Cc2ccccc2)c1`, 1.15%.
As for `Cc1n[nH]c(C)c1CNC(=O)NC1CCCN(c2ccccc2F)C1` (configuration not stated), the cytotoxicity at 70.5 h was 6.33%.
Under `Cc1[nH]ncc1C(=O)NCC1CCC2(CC1)OCCO2` stands -5.66%; under `O=C(CCNC1(c2nccs2)CCCC1)N1CCOCC1`, 7.56%.
As for `CC(NCCNS(=O)(=O)c1cccc(Cl)c1)C1CCOCC1` (configuration not stated), the cytotoxicity at 70.5 h is -6.77%.
Take `COc1ccnc(N2CCCN(Cc3ncc(C(C)C)o3)CC2)n1`: the cytotoxicity at 70.5 h was -4.8%.
Take `O=C(NCCNC1CCN(c2nccs2)CC1)c1cccs1`: the cytotoxicity at 70.5 h was -9.14%.
Under `O=C(Cn1cc(C2CC2)nn1)N(Cc1cccs1)CC1CCCO1` (configuration not stated) stands 10.4%; under `CNS(=O)(=O)c1ccc(CNC(=O)C2CCCO2)cc1` (configuration not stated), 27.2%; under `N#Cc1ccc(NCCC(=O)N2CCCc3ccccc32)nc1`, -6.4%.
Under `CN(C)C(=O)CNC(=O)c1cc2ccccc2nc1N1CCCC1` stands -7.99%; under `O=C(NCCCn1cccn1)c1nc2ccccc2[nH]1`, -10.1%.
Under `Cn1cc(CCNC(=O)c2cc3ccccc3nc2N2CCCC2)cn1` stands 3.18%; under `CC(C)NC(=O)NC(C)c1nc(-c2ccccc2)cs1` (configuration not stated), -6.77%.
With `CC(NC(=O)NC1CC1)c1nc(-c2ccccc2)cs1` (configuration not stated), the cytotoxicity at 70.5 h was -8.69%.
Under `COc1ccc2c(c1)NC(=O)C2OC(=O)Cc1ccccc1C` (configuration not stated) stands 31.3%; under `CC(C)(C)n1cc(CNC2CCN(C(=O)c3ccoc3)CC2)cn1`, -1.77%.
Under `CC(C)[C@H](N)C(=O)N1CCSc2ccccc2C1` stands -3.37%.
